This note sets out measurements from article doi:10.1101/471615v1 (biorxiv, 2018).

The target of the test is T1, TXK (Homo sapiens, UniProt P42681).
T1 sequence (P42681 1-527): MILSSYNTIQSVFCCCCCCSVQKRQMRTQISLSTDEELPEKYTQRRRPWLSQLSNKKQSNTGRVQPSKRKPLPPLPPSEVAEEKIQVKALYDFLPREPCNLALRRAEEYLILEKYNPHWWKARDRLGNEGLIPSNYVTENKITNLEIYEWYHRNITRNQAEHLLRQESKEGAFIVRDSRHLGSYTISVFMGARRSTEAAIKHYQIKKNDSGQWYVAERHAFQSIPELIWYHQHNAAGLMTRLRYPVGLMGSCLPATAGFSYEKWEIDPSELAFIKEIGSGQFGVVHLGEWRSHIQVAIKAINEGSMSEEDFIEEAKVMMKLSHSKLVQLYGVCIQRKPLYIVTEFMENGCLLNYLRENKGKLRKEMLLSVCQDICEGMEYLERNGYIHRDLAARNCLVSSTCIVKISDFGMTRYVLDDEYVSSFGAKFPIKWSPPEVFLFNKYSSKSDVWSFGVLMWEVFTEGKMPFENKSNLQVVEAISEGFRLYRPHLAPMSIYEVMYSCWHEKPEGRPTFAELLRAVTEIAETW
The test is described as follows: biochemical.

Some results are limits rather than exact numbers.

Take `COc1cc(N(C)c2ccnc3ccc(C(F)(F)F)cc23)cc(OC)c1OC` [compound 21, negative control (21)]: the Kd (commonly the constant that tells how readily two partners part at equilibrium) is more than 10 µM.
